Values joined by “and” are separate entries in the source; they are usually repeats but may differ in a detail not shown here. Equal values may be shown once. Numbers after ± are expanded uncertainties.
Details: Crystal

N.O=C(O)C(F)(F)C(F)(F)C(F)(F)C(F)(F)C(F)(F)C(F)(F)C(F)(F)F [ammonium perfluorooctanoate]
Details	vapor or sublimation pressure
318.35 K	3e-05 ± 1e-05 kPa
318.45 K	2e-05 ± 1e-05 kPa
318.55 K	3e-05 ± 1e-05 kPa and 5e-05 ± 2e-05 kPa
318.75 K	1e-05 ± 1e-05 kPa
318.85 K	7e-05 ± 3e-05 kPa
328.25 K	7e-05 ± 3e-05 kPa
328.35 K	6e-05 ± 3e-05 kPa
328.45 K	6e-05 ± 3e-05 kPa
328.65 K	9e-05 ± 4e-05 kPa and 0.00019 ± 8e-05 kPa
328.75 K	4e-05 ± 2e-05 kPa and 9e-05 ± 4e-05 kPa and 6e-05 ± 3e-05 kPa
328.85 K	0.00014 ± 6e-05 kPa and 6e-05 ± 3e-05 kPa and 0.00011 ± 5e-05 kPa
333.15 K	9e-05 ± 4e-05 kPa
333.35 K	0.00023 ± 9e-05 kPa
333.65 K	0.00013 ± 5e-05 kPa [middle of 4 runs]
333.75 K	0.00021 ± 9e-05 kPa

Source: the NIST ThermoML archive (doi:10.1021/je800418m)
